ChEMBL document CHEMBL3881525, “Analogs of dehydrophenylahistins and their therapeutic use” (2007)
Values after ≈ are worked out from the molar mass of the structure shown. Active and inactive are the calls of the source. No cut-off for these calls is given here.

Experiments:
[1] = Antitumor activity against human HT-29 cells xenografted in nude mouse assessed as tumor growth inhibition at 100 mg/kg, ip administered thrice weekly relative to control; assay type: functional; details: HT-29, ip, read-out: TGI
Nakaseomyces glabratus = assay: Fungicidal activity against Candida glabrata measured after 48 hrs by broth dilution method; assay type: functional
[2] = Cytotoxicity against mouse P388 cells assessed as reduction in cell viability measured after 48 hrs by resazurin dye-based fluorometric analysis; assay type: functional; details: P388, 48 h
[3] = biological target: Tubulin (Candida albicans) (UniProt P87066+P10875+O93807); assay: Inhibition of microtubule formation in Candida albicans; assay type: protein-complex assay
[4] = Antiproliferative activity against taxol-resistant human MES-SA/Dx5 cells expressing MDR1 mRNA and P-gp; assay type: functional, cell-based
[5] = Cytotoxicity against human HT-29 cells assessed as reduction in cell viability measured after 48 hrs by resazurin dye-based fluorometric analysis relative to control; assay type: functional
[6] = Cytotoxicity against human HT-29 cells assessed as reduction in cell viability measured after 48 hrs by resazurin dye-based fluorometric analysis; assay type: functional; details: Homo sapiens, HT-29, 48 h
[7] = Cytotoxicity against mouse B16F10 cells assessed as reduction in cell viability measured after 48 hrs by resazurin dye-based fluorometric analysis; assay type: functional; details: B16-F10, 48 h
[8] = Cytotoxicity against human PC3 cells assessed as reduction in cell viability measured after 48 hrs by resazurin dye-based fluorometric analysis; assay type: functional; details: PC-3, 48 h
HL-60 = assay: Ratio of EC50 for human mitoxantrone-sensitive HL60 cells to EC50 for human mitoxantrone-resistant HL60/MX2 cells; assay type: functional
MES-SA = assay: Ratio of EC50 for taxol-resistant human MES-SA/DX5 cells expressing MDR1 mRNA and P-gp to EC50 for taxol-sensitive human MES-SA cells; assay type: functional
[9] = Cytotoxicity against human NCI-H292 cells assessed as reduction in cell viability measured after 48 hrs by resazurin dye-based fluorometric analysis; assay type: functional; details: NCI-H292, 48 h
Tubulin (Homo sapiens) [10] = biological target: T1, Tubulin (Homo sapiens) (UniProt P68371+Q9H4B7+P0DPH7+P68366+Q13509+Q71U36+P04350+Q3ZCM7+P07437+P68363+Q9BQE3+Q6PEY2+Q13885+Q9BVA1+Q9BUF5); assay: Induction of microtubule depolymerization in HUVEC at 1.5 to 5 uM by turbidity spectroscopic analysis; assay type: cell-based
[11] = Cytotoxicity against human MDA-MB-231 cells assessed as reduction in cell viability measured after 48 hrs by resazurin dye-based fluorometric analysis; assay type: functional; details: MDA-MB-231, 48 h
[12] = Antiproliferative activity against human mitoxantrone-resistant HL60/MX2 cells; assay type: functional, cell-based; details: HL-60
Tubulin (Homo sapiens) [13] = biological target: T1, Tubulin (Homo sapiens); assay: Induction of microtubule depolymerization in HUVEC at 20 nM measured after 30 mins by DAPI-staining based immunofluorescence analysis; assay type: cell-based
[14] = system: Trichophyton mentagrophytes; assay: Fungicidal activity against Trichophyton mentagrophytes isolate 1 measured after 48 hrs by broth dilution method; assay type: functional; details: isolate 1, 48 h
[15] = Antiproliferative activity against taxol-resistant human MES-SA/Dx5 cells expressing MDR1 mRNA and P-gp pretreated with p-gp inhibitor cyclosporinA followed by compound addition; assay type: functional, cell-based
[16] = Antifungal activity against Candida glabrata measured after 48 hrs by broth dilution method; assay type: functional; details: Nakaseomyces glabratus
[17] = Antifungal activity against Trichophyton mentagrophytes isolate 2 measured after 48 hrs by broth dilution method; assay type: functional
Jurkat [18] = assay: Induction of apoptosis in human Jurkat cells assessed as DNA laddering at 1 nM by gel electrophoresis; assay type: functional, cell-based
Aspergillus fumigatus [19] = assay: Antifungal activity against Aspergillus fumigatus isolate 1 measured after 48 hrs by broth dilution method; assay type: functional; details: isolate 1, 48 h
Aspergillus fumigatus [20] = assay: Antifungal activity against Aspergillus fumigatus isolate 2 measured after 48 hrs by broth dilution method; assay type: functional; details: isolate 2, 48 h
Jurkat [21] = assay: Induction of apoptosis in human Jurkat cells assessed as PARP cleavage at 100 nM measured after 10 hrs by Western blotting; assay type: functional, cell-based
[22] = Antifungal activity against Epidermophyton floccosum isolate 1 measured after 48 hrs by broth dilution method; assay type: functional
[23] = Antifungal activity against Trichophyton rubrum isolate 2 measured after 48 hrs by broth dilution method; assay type: functional
[24] = Antiproliferative activity against taxol-sensitive human MES-SA cells […]; assay type: functional, cell-based
[25] = Antifungal activity against Epidermophyton floccosum isolate 2 measured after 48 hrs by broth dilution method; assay type: functional
[26] = Antifungal activity against Trichophyton rubrum isolate 1 measured after 48 hrs by broth dilution method; assay type: functional
Trichophyton rubrum [27] = assay: Fungicidal activity against Trichophyton rubrum isolate 2 measured after 48 hrs by broth dilution method; assay type: functional; details: isolate 2, 48 h
[28] = Antifungal activity against Trichophyton mentagrophytes isolate 1 measured after 48 hrs by broth dilution method; assay type: functional
[29] = Antiproliferative activity against taxol-sensitive human MES-SA cells pretreated with p-gp inhibitor cyclosporinA followed by compound addition; assay type: functional, cell-based
Trichophyton rubrum [30] = assay: Fungicidal activity against Trichophyton rubrum isolate 1 measured after 48 hrs by broth dilution method; assay type: functional; details: isolate 1, 48 h

Tubulin (Candida albicans), sequence (O93807 whole entry, looked up): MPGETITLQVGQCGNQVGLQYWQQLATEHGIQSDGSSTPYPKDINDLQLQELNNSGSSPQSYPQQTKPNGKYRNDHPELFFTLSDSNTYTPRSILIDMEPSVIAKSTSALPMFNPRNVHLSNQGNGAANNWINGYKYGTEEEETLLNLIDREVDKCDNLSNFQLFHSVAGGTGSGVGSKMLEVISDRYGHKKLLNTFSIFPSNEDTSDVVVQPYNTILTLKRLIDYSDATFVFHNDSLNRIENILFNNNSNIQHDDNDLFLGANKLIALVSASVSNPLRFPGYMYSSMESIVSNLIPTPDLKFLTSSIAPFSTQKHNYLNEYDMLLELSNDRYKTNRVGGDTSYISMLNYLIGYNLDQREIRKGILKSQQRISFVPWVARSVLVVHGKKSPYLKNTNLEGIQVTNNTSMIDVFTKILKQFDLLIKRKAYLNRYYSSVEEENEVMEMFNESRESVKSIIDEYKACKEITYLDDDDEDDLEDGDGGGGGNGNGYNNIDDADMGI
Tubulin (Candida albicans), sequence (P10875 whole entry, looked up): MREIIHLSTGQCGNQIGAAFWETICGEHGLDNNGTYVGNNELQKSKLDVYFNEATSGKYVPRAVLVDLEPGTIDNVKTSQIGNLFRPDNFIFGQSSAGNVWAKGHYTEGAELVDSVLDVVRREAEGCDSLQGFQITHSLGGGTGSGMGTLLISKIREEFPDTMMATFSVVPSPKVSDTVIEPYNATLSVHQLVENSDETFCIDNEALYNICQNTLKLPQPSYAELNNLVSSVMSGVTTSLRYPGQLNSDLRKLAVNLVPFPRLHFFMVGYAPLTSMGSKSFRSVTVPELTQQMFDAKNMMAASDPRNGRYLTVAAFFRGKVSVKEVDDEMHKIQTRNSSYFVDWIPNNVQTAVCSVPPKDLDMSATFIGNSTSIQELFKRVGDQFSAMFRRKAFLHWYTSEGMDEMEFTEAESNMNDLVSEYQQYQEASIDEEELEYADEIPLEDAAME
Tubulin (Candida albicans), sequence (P87066 whole entry, looked up): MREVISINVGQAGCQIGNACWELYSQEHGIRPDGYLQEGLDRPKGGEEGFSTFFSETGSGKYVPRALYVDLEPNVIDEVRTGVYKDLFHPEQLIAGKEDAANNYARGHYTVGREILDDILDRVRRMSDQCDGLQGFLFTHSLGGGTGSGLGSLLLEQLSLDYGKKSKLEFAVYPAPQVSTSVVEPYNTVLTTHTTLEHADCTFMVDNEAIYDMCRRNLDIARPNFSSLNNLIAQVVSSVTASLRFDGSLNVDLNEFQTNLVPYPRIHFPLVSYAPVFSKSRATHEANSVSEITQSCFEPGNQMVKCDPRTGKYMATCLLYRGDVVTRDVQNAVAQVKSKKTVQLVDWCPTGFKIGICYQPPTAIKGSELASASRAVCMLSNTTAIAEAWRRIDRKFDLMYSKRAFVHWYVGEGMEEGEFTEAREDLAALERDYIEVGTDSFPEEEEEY

`CCc1c2c(nc3ccc(OC(=O)N4CCC(N5CCCCC5)CC4)cc13)-c1cc3c(c(=O)n1C2)COC(=O)[C@]3(O)CC` [IRINOTECAN] gave an inhibition in vivo at 100 mg/kg [1] of 32.7 to 39%.
In the case of `CCCCNC(=O)n1c(NC(=O)OC)nc2ccccc21` [BENOMYL], the MFC (Nakaseomyces glabratus) is reported as over 512 µg/mL.
`NS(=O)(=O)c1ccc(S(=O)(=O)Nc2cccc3c(Cl)c[nH]c23)cc1` showed an IC50 [2] of 0.15 µg/mL (≈ 0.389 µM).
With `CC(C)OC(=O)Nc1cccc(Cl)c1` the inhibition [3] was “Active”.
With `CC(C)(C)c1ocnc1/C=c1\[nH]c(=O)/c(=C/c2ccccc2)[nH]c1=O.O=C(O)C(F)(F)F` the IC50 [4] was 17 nM, the “inhibition (INH)” value [5] was 88% and the EC50 [6] was 21 to 22.2 nM. For the same molecule, the EC50 [7] was over 2000 nM, the EC50 [8] was 20 nM and the “Ratio EC50” value (HL-60) was 0.6. The “Ratio EC50” value (MES-SA) was 1.4, the EC50 [9] was 19 nM and the Activity (Tubulin (Homo sapiens) [10]) was “Active”. For the same molecule, the EC50 [11] was 41 nM, the EC50 [12] was 14 nM and the Activity (Tubulin (Homo sapiens) [13]) was “Active”.
In the case of `C=CC(C)(C)c1[nH]cnc1/C=c1\[nH]c(=O)/c(=C/c2ccccc2)[nH]c1=O`, the EC50 [4] is reported as 98 nM, the “inhibition (INH)” value [5] is reported as 86% and the MFC [14] is reported as over 16 µg/mL. It also gave an EC50 [15] of 88 nM, an EC50 [6] of 42.6 to 48 nM and an MIC [16] of over 68 µg/mL. For the same molecule, the MIC [17] was over 16 µg/mL, the Activity (Jurkat [18]) was “Active” and the MIC (Aspergillus fumigatus [19]) was over 16 µg/mL. The MIC (Aspergillus fumigatus [20]) was over 16 µg/mL, the Activity (Jurkat [21]) was “Active” and the MIC [22] was over 16 µg/mL. The MIC [23] was 0.25 µg/mL (≈ 0.718 µM), the EC50 [8] was 4.7 to 5.4 nM and the EC50 [24] was 116 nM. The MIC [25] was over 16 µg/mL, the MIC [26] was over 16 µg/mL and the MFC (Trichophyton rubrum [27]) was over 16 µg/mL. It also gave an MIC [28] of 4 µg/mL (≈ 11.5 µM) and an EC50 [29] of 114 nM.
For `CC(C)(C)c1[nH]cnc1/C=C1\NC(=O)[C@H](Cc2ccccc2)NC1=O`, the MFC [14] was over 16 µg/mL, the MIC [17] was over 16 µg/mL and the MIC [22] was over 16 µg/mL. It also gave an MIC [23] of under 0.03 µg/mL, an MIC [25] of over 16 µg/mL and an MIC [26] of under 0.03 µg/mL. For the same molecule, the MFC (Trichophyton rubrum [27]) was under 0.03 µg/mL, the MIC [28] was 4 µg/mL (≈ 11.8 µM) and the MFC (Trichophyton rubrum [30]) was 0.125 µg/mL (≈ 0.369 µM).
In the case of `CC(C)(C)c1ocnc1/C=c1\[nH]c(=O)/c(=C/c2cccc(F)c2)[nH]c1=O`, the IC50 [4] is reported as 14 nM, the EC50 [6] is reported as 16.3 to 17.1 nM and the EC50 [7] is reported as 13 nM. The “Ratio EC50” value (HL-60) was 0.5, the “Ratio EC50” value (MES-SA) was 1.2 and the EC50 [9] was 14 nM. The Activity (Tubulin (Homo sapiens) [10]) was “Active”, the EC50 [11] was 24 nM and the EC50 [12] was 14 nM. For the same molecule, the Activity (Tubulin (Homo sapiens) [13]) was “Active”.
